The text below walks through data of US20020146823A1, “Method for promoting hematopoietic and mesenchymal cell proliferation and differentiation” (The University of Southern California, priority 1997, published 2002).

For one assay, the system named is rat bone marrow MSC. The experiment in a line: Alkaline phosphatase expression by MSC in osteogenic medium. It is filed as cell-based, Sprague Dawley rats. Particulars: osteogenic medium 4 days. On the procedure: Bone marrow from female Sprague Dawley rats were harvested by flushing the femur with medium. The cells were placed in culture dishes […], allowed to adhere overnight, and then placed in DMEM-LG medium containing antibiotics and 10% fetal calf serum together with varying concentrations of AII. At various times after culture initiation, the cells were washed with Tyrode's buffer and placed in osteogenic medium (DMEM-LG containing 10% fetal calf serum, 100 nM dexamethasone and 0.05 mM ascorbic acid) for 4 days prior to assessment of the level of alkaline phosphatase activity per well. Briefly, the wells were washed with Tyrode's buffer and 1 ml alkaline phosphatase substrate solution (50 mM glycine, pH 10.5, containing 1 mM magnesium chloride and 2.5 mM p-nitrophenyl phosphate) to each well. Fifteen minutes after addition of this aqueous substrate, the buffer was removed from the culture and mixed with 1 ml of 1N sodium hydroxide to stop the reaction. The absorbance of the resultant mixture at […] was then determined via spectroscopy. The level of alkaline phosphatase activity is expressed as the level of absorbance per culture dish.

The next assay has as its target T1, AT2 receptor (Homo sapiens, UniProt P50052).
T1 sequence (P50052 1-363): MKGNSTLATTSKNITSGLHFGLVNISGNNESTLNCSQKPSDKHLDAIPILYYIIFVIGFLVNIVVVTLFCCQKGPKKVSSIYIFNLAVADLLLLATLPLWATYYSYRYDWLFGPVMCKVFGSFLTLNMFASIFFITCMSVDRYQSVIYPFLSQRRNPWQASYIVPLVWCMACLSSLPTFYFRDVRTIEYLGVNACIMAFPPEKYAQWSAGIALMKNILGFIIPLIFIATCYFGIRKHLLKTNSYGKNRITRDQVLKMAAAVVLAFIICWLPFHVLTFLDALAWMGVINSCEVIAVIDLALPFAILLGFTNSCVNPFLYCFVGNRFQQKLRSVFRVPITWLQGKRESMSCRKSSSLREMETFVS
Particulars: cited from earlier work.

The subject of assay [1] is Rat Peritoneal Macrophages. The experiment in a line: Phagocytic capability of rat peritoneal macrophages (opsonized yeast ingestion). It is filed as cell-based, Sprague Dawley rats. On the procedure:
Resident peritoneal macrophages have very little phagocytic activity. Exposure of macrophages to inflammatory or activating agents will increase this macrophage function. Resident peritoneal macrophages were harvested from C57B1/6 mice or Sprague Dawley rats and resuspended at a concentration of 1×10^6 cells/ml in phosphate buffered saline (PBS). Five separate 0.5 ml cell aliquots were placed on a glass coverslip in a 35 mm petri dish. Prior to incubation, either 0.5 ml of PBS, AII, or AII analogues or fragments at between 1-1000 ug/ml final concentration was added to the individual cover slips. The dishes containing the cover slips were then incubated at 37° C. for 4 hours, after which the cover slips were washed 3 to 6 times with PBS. Opsonized yeast particles (Sigma Chemical Co.) (yeast opsonized with adult serum from the same species as that under study) were added to the cover slips and incubated for 2 hours, after which the cover slips were again washed with PBS and inverted onto a glass slide. The number of macrophages that ingested yeast and the number of yeast per macrophage ingested was then determined microscopically. At least 100 macrophages per coverslip were counted. The data from this study are summarized in Tables 3 and 4 and FIGS. 1 and 2.

The next assay deals with rat MSC. The experiment in a line: Rat mesenchymal stem cell proliferation in bone marrow cultures. The assay is classed as cell-based, Sprague Dawley rats. The following applies: 1 to 100 μg/ml. As for the experimental part:
These studies were conducted to determine the effect that AII would have on the proliferation of MSC. Bone marrow cells were harvested from the femur and tibia of female Sprague Dawley rats by flushing the bones with Dulbecco's Minimal Essential Medium-High Glucose (“DMEM-HG”) with a syringe and an 18 gauge needle. These cells were cultured in 24 well plates at 5×10^3 cells/mm^2 in DMEM-HG containing selected lots of fetal calf serum (FCS) and antibiotics (complete medium) at 37° C. incubator containing 5% CO2 in air. Twenty-four hours after the initiation of the cultures the medium and nonadherent cells were aspirated and fresh medium was added. To each of these several wells, complete medium with (1 to 100 μg/ml) or without AII was added. The migration of cells from the clones and their proliferation was followed by microscopic examination. Every 4 days the old medium was removed and fresh medium was added to the cultures. These studies were conducted to determine the effect that inclusion of All analogues and fragments in the cell culture of MSC would have on the proliferation of these cells. Bone marrow cells were harvested from the femur and tibia of female Sprague Dawley rats by flushing the bones with Dulbecco's Minimal Essential Medium-High Glucose (“DMEM-HG”) with a syringe and an 18 gauge needle. […]

For assay [2], the system named is murine bone marrow stem cells. The following applies: cited from earlier work.
The test system of assay [3] is human peripheral blood mononuclear cells (PBMC). The assay can be described thus: Respiratory burst (hydrogen peroxide generation) in human PBMC. The assay is classed as cell-based. Particulars: alone and in response to PMA; 4 hours exposure; five donors. As for the experimental part:
The respiratory burst of leukocytes (macrophages and polymorphonuclear neutrophils) is one component of the mediator system used to kill bacteria. As with phagocytosis, the level of this respiratory burst activity in resident macrophages is low. […] Studies were conducted to assess the effect of in vitro exposure of murine or rat peritoneal macrophages and human peripheral blood mononuclear cells (PBMC) to various concentrations of AII on the capacity to generate hydrogen peroxide via the respiratory burst system. For the human studies, five different donors were examined.
The murine or rat peritoneal cells were harvested by lavage with 5-15 ml of cold PBS with 0.5% bovine serum albumin. The human PBMC were harvested by venipuncture from normal human volunteers and isolated from peripheral blood by Ficoll Hypaque density centrifugation. After isolation, the cells were resuspended at 1×10^6 cells/ml and placed at 100 μl per well into 96 well plates. The cells were incubated with various concentrations of AII or AII analogues and fragments for 4 hours at 37° C. The cells were then preloaded with a fluorescent probe for hydrogen peroxide, 2,7 dichlorofluorescein acetate, which is nonfluorescent in the absence of hydrogen peroxide. Fifteen minutes later, 10 ng/ml of phorbol myristate acetate (+PMA) or PBS (−PMA) was added to stimulate the production of hydrogen peroxide. One hour after stimulation the level of fluorescence produced was measured on a Cytofluor 2350 multiwell fluorometer.

Regarding “Asp-Arg-Val-Tyr-Ile-His-Pro-Phe (DRVYIHPF; printed: Asp-Arg-Val-Tyr-Ile-His-Pro-Phe) [AII, octapeptide present in humans and other species; known pressor agent, commercially available]”, the “proliferation of cells that express alkaline phosphatase” value with rat bone marrow MSC is recorded as “can accelerate the proliferation of cells that express alkaline phosphatase”. Also, in the assay with AT2 receptor, the “affinity for AT2 relative to AT1” value is recorded as 100 times. Besides, in assay [1] (peptide 100 μg/ml), the “#/Cell” value is on record as 1.14, the “% w/Yeast” value stood at 35.7%, the “Number of Macrophages with Yeast (Yeast Number) 0” value came out at 90 and the “Number of Macrophages with Yeast (Yeast Number) 1-3” value was 30. Besides, the “Number of Macrophages with Yeast (Yeast Number) ≧7” value in assay [1] (peptide 100 μg/ml) stood at 0. Also, in assay [1] (peptide 1000 μg/ml), the “#/Cell” value is on record as 2.86, the “% w/Yeast” value turned out to be 70.4%, the “Number of Macrophages with Yeast (Yeast Number) 0” value is recorded as 50 and the “Number of Macrophages with Yeast (Yeast Number) 1-3” value is listed as 54. In assay [1] (peptide 1000 μg/ml), the “Number of Macrophages with Yeast (Yeast Number) 4-6” value turned out to be 40 and the “Number of Macrophages with Yeast (Yeast Number) ≧7” value was found to be 25. Further, the “number of MSC” value in the assay with rat MSC (all time points examined) is listed as “increase in the number of MSC in a concentration dependent manner”. Besides, in the assay on rat MSC (complete medium with serum), the “number of sites from which MSC were migrating (CFU) and size (number of cells) of colonies formed” value is “significantly increased”. Moreover, in assay [2] (absence of exogenous colony stimulating factors), the formation of colonies entry is reported as “increases the formation of colonies”. In addition, the “number and size of colonies formed” value in assay [2] (lineage-negative bone marrow cells expressing Sca1) was “increased the number and size of colonies formed only in the presence of exogenous colony stimulating factors”. Moreover, the “ability of leukocytes to generate hydrogen peroxide” value in assay [3] was “increased the ability of leukocytes to generate hydrogen peroxide both alone and in response to stimulation with PMA”.
